Laboratory results from publication PMC9894685, “Abscisic acid agonists suitable for optimizing plant water use” (Frontiers in Plant Science, 2023).

Key:
RCAR1-ABI2 = biological target: T1, RCAR1-ABI2 (Arabidopsis thaliana, UniProt O04719+Q84MC7); experiment: In vitro phosphatase assay, ABI2 with RCAR1; type: biochemical; settings: for Statistical significance of RCAR1-mediated inhibition of ABI2 phosphatase activity vs ABA / Statistical significance of RCAR1-mediated inhibition of ABI2 phosphatase activity vs CCP1: Fig. 3B
T1 construct: 6xHis (N); made in house; host or cells: Escherichia coli BL21
T1 sequence (Q84MC7 1-187): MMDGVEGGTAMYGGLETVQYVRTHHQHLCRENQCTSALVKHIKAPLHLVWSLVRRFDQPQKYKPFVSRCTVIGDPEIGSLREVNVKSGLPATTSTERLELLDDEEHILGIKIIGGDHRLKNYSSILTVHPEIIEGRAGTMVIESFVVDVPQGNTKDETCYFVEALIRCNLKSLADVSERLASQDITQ
T1 sequence (O04719 1-423): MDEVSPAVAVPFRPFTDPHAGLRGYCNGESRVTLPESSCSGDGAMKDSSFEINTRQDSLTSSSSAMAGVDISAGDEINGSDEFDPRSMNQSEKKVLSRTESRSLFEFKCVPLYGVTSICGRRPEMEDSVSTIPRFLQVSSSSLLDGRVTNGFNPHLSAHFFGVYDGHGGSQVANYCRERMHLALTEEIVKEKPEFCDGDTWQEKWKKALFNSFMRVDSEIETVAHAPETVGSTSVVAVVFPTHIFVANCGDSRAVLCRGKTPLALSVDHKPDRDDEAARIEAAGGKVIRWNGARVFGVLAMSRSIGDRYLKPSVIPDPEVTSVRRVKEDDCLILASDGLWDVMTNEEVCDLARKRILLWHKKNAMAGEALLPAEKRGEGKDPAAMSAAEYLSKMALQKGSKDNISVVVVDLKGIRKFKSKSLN
Method: (§1) Expression, purification, and analysis of RCAR and PP2C proteins were performed essentially as described ([Ruschhaupt et al., 2019]). Briefly, the ABA receptors RCAR1, RACR8, and RCAR11 were expressed with an aminoterminal histidine tag using the pSEVA431_LII_6xHIS::RCAR1/RCAR8/RCAR11. ABA coreceptors were expressed as histidine-tagged fusions with the maltose-binding protein using the pSEVA431_LII_6xHIS::MBP::ABI2/HAB1. All constructs were transformed and expressed in Escherichia coli strain BL21 and purified to homogeneity according to supplier’s instruction (GE Healthcare, Chicago, USA). The receptor assay was performed with 100 nM PP2C and a two-fold molar excess of RCAR. Values are means ± SD of three replicates. […] The maximum inhibition was set to 100% in the figures. The phosphatase activity was measured using 4-methylumbelliferyl-phosphate as a substrate ([Meinhard and Grill, 2001]). The increase in fluorescence was recorded over 25 min with excitation and emission wavelengths at 360 and 460 nm, respectively, using a Synergy 2 plate reader (Bio-Tec, Winooski, USA).

RCAR1-HAB1 = biological target: T2, RCAR1-HAB1; experiment: In vitro phosphatase assay, HAB1 with RCAR1; type: biochemical, Arabidopsis thaliana; settings: 100 nM HAB1, 200 nM RCAR1
T2 construct: 6xHis (N); made in house; host or cells: Escherichia coli BL21
Method: as §1

Arabidopsis plants = experiment: Progressive drought experiment: growth, water consumption, WUE; type: in vivo, Arabidopsis thaliana
Method: The progressive drought experiment was performed as described ([Yang et al., 2016]). Briefly, 18-day-old Arabidopsis plantlets grown under well-watered and short-day conditions (8 h light with 150 µmol m^-2 s^-1 PAR, 22°C, 50% relative humidity, and 16 h dark with 17°C, 60% relative humidity) were transferred to 0.2 L pots loaded with water-saturated soil (33.4 ± 0.4 g dry soil with 148 ± 2 g water). At the onset of the progressive drought (day 0), water was withheld, and a sealed soil surface prevented evaporation. A slowly increasing water deficit was achieved by transpirational water loss from plants. The progressive drought experiment lasted for eight weeks until mock-treated plants had consumed all the plant-usable water. […] For measuring growth and water consumption, leaf rosettes were regularly photographed, and the pots were weighed. The projected leaf area of Arabidopsis rosettes was analyzed by using Photoshop Elements software (Adobe, San Jose, USA). The consumed water was calculated as the difference in pot weight between day 0 and the designated days. The retained water was expressed as the difference between the pot weight at the end of the drought (day 57) and the weight of the loaded dry soil. Above-ground material was harvested at day 57, and the biomass was determined after drying the material for three days at 60°C to achieve constant weight. WUE was calculated as the ratio of above-ground dry biomass to consumed water. The data for the mock- and ABA-treated plants in the progressive drought experiment were already published ([Yang et al., 2019]).

CCC(=C/C(=O)O)/C=C/C(O)(C(C)C)C1(C#N)CC1 (stereo not drawn) [CCP2]
Statistical significance of RCAR1-mediated inhibition of ABI2 phosphatase activity vs ABA (RCAR1-ABI2; 0.003 µM): ns (Otherwise, the difference is regarded as insignificant indicated as “ns”)
Statistical significance of RCAR1-mediated inhibition of ABI2 phosphatase activity vs CCP1 (RCAR1-ABI2; 0.003 µM): ns (Otherwise, the difference is regarded as insignificant indicated as “ns”)
Statistical significance of RCAR1-mediated inhibition of ABI2 phosphatase activity vs ABA (RCAR1-ABI2; 0.01 µM): ns (Otherwise, the difference is regarded as insignificant indicated as “ns”)
Statistical significance of RCAR1-mediated inhibition of ABI2 phosphatase activity vs CCP1 (RCAR1-ABI2; 0.01 µM): ns (Otherwise, the difference is regarded as insignificant indicated as “ns”)
Statistical significance of RCAR1-mediated inhibition of ABI2 phosphatase activity vs ABA (RCAR1-ABI2; 0.03 µM): s (P < 0.05 (one-way ANOVA) is considered as a significant difference and expressed as “s”)
Statistical significance of RCAR1-mediated inhibition of ABI2 phosphatase activity vs CCP1 (RCAR1-ABI2; 0.03 µM): ns (Otherwise, the difference is regarded as insignificant indicated as “ns”)
Statistical significance of RCAR1-mediated inhibition of ABI2 phosphatase activity vs ABA (RCAR1-ABI2; 0.1 µM): s (P < 0.05 (one-way ANOVA) is considered as a significant difference and expressed as “s”)
Statistical significance of RCAR1-mediated inhibition of ABI2 phosphatase activity vs CCP1 (RCAR1-ABI2; 0.1 µM): s (P < 0.05 (one-way ANOVA) is considered as a significant difference and expressed as “s”)
IC50 relative to ABA (fold higher) (RCAR1-ABI2; 100 nM ABI2 and 200 nM RCAR1): approximately 100 fold
Statistical significance of RCAR1-mediated inhibition of ABI2 phosphatase activity vs ABA (RCAR1-ABI2; 0.3 µM): s (P < 0.05 (one-way ANOVA) is considered as a significant difference and expressed as “s”)
Statistical significance of RCAR1-mediated inhibition of ABI2 phosphatase activity vs CCP1 (RCAR1-ABI2; 0.3 µM): s (P < 0.05 (one-way ANOVA) is considered as a significant difference and expressed as “s”)
Statistical significance of RCAR1-mediated inhibition of ABI2 phosphatase activity vs ABA (RCAR1-ABI2; 1 µM): s (P < 0.05 (one-way ANOVA) is considered as a significant difference and expressed as “s”)
Statistical significance of RCAR1-mediated inhibition of ABI2 phosphatase activity vs CCP1 (RCAR1-ABI2; 1 µM): ns (Otherwise, the difference is regarded as insignificant indicated as “ns”)
Statistical significance of RCAR1-mediated inhibition of ABI2 phosphatase activity vs ABA (RCAR1-ABI2; 3 µM): s (P < 0.05 (one-way ANOVA) is considered as a significant difference and expressed as “s”)
Statistical significance of RCAR1-mediated inhibition of ABI2 phosphatase activity vs CCP1 (RCAR1-ABI2; 3 µM): ns (Otherwise, the difference is regarded as insignificant indicated as “ns”)
Statistical significance of RCAR1-mediated inhibition of ABI2 phosphatase activity vs ABA (RCAR1-ABI2; 10 µM): s (P < 0.05 (one-way ANOVA) is considered as a significant difference and expressed as “s”)
Statistical significance of RCAR1-mediated inhibition of ABI2 phosphatase activity vs CCP1 (RCAR1-ABI2; 10 µM): ns (Otherwise, the difference is regarded as insignificant indicated as “ns”)
Statistical significance of RCAR1-mediated inhibition of ABI2 phosphatase activity vs ABA (RCAR1-ABI2; 30 µM): s (P < 0.05 (one-way ANOVA) is considered as a significant difference and expressed as “s”)
Statistical significance of RCAR1-mediated inhibition of ABI2 phosphatase activity vs CCP1 (RCAR1-ABI2; 30 µM): ns (Otherwise, the difference is regarded as insignificant indicated as “ns”)
Statistical significance of RCAR1-mediated inhibition of ABI2 phosphatase activity vs ABA (RCAR1-ABI2; 100 µM): s (P < 0.05 (one-way ANOVA) is considered as a significant difference and expressed as “s”)
Statistical significance of RCAR1-mediated inhibition of ABI2 phosphatase activity vs CCP1 (RCAR1-ABI2; 100 µM): ns (Otherwise, the difference is regarded as insignificant indicated as “ns”)
IC50 with HAB1 compared to the ABI2 results (RCAR1-HAB1): lower IC50 value
WUE increase (Arabidopsis plants; 30 µM solute concentration): ~50%
Growth of leaf rosettes compared to mock (Arabidopsis plants; 30 µM, three administrations): growth reduction
Plant-usable soil water transpired (Arabidopsis plants; end of drought experiment): ~70%
WUE improvement compared to controls (Arabidopsis plants; end of drought experiment): up to 50%
Restriction of water consumption (Arabidopsis plants; single administration, for two weeks): approximately 30%
